Columns and labels:
Format in all cases: cell-based
CB1 = CB1 (Homo sapiens, UniProt P21554); experiment: BRET Gαi1 engagement, CB1 wild-type; conditions: CB1 WT, HEK-293T, normalized against CP55940, mean ± SEM
CB2 [1] = molecular target: T1, CB2 (Homo sapiens, UniProt P34972); experiment: BRET Gαi1 engagement, CB2 wild-type; conditions: HEK-293T, read-out: E max, CB2 Gαi1 Engagement
CB2 [2] = molecular target: T1, CB2; experiment: BRET β-arrestin 2 recruitment, CB2 wild-type; conditions: HEK-293T, read-out: E max, CB2 β-Arrestin 2 Recruitment
CB1 L193I = CB1 L193I (Homo sapiens, UniProt P21554, L193I); experiment: BRET Gαi1 engagement, CB1 L193I mutant; conditions: read-out: E max, CB1 L193I Gαi1 Engagement
CB1 I267L = CB1 I267L (Homo sapiens, UniProt P21554, I267L); experiment: BRET Gαi1 engagement, CB1 I267L mutant; conditions: read-out: E max, CB1 I267L Gαi1 Engagement
CB2 I110L = CB2 I110L (Homo sapiens, UniProt P34972, I110L); experiment: BRET Gαi1 engagement, CB2 I110L mutant; conditions: read-out: E max, CB2 I110L Gαi1 Engagement
CB2 L182I = CB2 L182I (Homo sapiens, UniProt P34972, L182I); experiment: BRET Gαi1 engagement, CB2 L182I mutant; conditions: read-out: E max, CB2 L182I Gαi1 Engagement
CB2 V261L = CB2 V261L (Homo sapiens, UniProt P34972, V261L); experiment: BRET Gαi1 engagement, CB2 V261L mutant; conditions: read-out: E max, CB2 V261L Gαi1 Engagement
[3] = molecular target: CB2 triple mutant (I110L/L182I/V261L) (Homo sapiens, UniProt P34972, I110L/L182I/V261L); experiment: BRET Gαi1 engagement, CB2 triple mutant; conditions: read-out: E max, CB2 Triple Mutations Gαi1 Engagement
Sequence of CB2 triple mutant (I110L/L182I/V261L) (P34972 whole entry I110L/L182I/V261L): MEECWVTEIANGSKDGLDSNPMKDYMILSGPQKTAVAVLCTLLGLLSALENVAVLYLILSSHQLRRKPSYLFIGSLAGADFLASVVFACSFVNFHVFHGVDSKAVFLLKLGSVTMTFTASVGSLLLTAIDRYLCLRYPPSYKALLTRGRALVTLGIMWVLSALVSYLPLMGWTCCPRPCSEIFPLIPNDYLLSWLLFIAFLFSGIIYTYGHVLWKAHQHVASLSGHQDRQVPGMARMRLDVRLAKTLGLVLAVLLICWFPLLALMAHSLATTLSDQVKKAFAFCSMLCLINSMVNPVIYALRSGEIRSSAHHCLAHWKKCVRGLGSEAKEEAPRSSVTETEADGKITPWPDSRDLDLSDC

T1 sequence (P34972 whole entry): as the sequence (P34972 whole entry I110L/L182I/V261L) above, with L110I, I182L, L261V counted along it
Sequence of CB1 (P21554 whole entry): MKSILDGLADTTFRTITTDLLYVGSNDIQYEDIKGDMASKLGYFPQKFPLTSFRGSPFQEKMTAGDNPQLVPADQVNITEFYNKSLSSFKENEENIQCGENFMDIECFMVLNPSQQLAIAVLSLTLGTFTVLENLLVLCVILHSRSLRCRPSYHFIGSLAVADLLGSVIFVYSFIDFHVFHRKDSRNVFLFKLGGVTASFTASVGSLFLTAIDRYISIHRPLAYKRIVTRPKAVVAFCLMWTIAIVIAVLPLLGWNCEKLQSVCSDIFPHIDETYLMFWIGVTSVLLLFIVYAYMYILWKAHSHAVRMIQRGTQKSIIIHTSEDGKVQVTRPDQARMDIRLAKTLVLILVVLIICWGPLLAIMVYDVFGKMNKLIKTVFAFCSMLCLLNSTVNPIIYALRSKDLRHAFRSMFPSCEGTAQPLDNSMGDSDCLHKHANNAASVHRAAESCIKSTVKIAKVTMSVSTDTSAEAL
Sequence of CB2 V261L (P34972 whole entry V261L): as the sequence (P34972 whole entry I110L/L182I/V261L) above, with L110I, I182L counted along it
Sequence of CB2 L182I (P34972 whole entry L182I): as the sequence (P34972 whole entry I110L/L182I/V261L) above, with L110I, L261V counted along it
Sequence of CB1 L193I (P21554 whole entry L193I): as the sequence (P21554 whole entry) above, with L193I counted along it
Sequence of CB2 I110L (P34972 whole entry I110L): as the sequence (P34972 whole entry I110L/L182I/V261L) above, with I182L, L261V counted along it
Sequence of CB1 I267L (P21554 whole entry I267L): as the sequence (P21554 whole entry) above, with I267L counted along it

Q: With `CCCCCCC(C)(C)c1ccc([C@@H]2C[C@H](O)CC[C@H]2CCCO)c(O)c1` [CP55940] as the molecule, how does the “E max, CB1 Gαi1 Engagement” value (CB1) read?
A: 99.4 ± 3.0%

Q: And the Emax (CB2 [1])?
A: 99.8 ± 2.7%

Q: And the Emax (CB2 [2])?
A: 99.7 ± 2.7%

Q: What about the Emax (CB1 L193I) of the same molecule?
A: 98.2 ± 2.2%

Q: And the Emax (CB1 I267L)?
A: 77.6 ± 2.5%

Q: What about the Emax (CB2 I110L) of the same molecule?
A: 83.1 ± 2.8%

Q: And the Emax (CB2 L182I)?
A: 32.2 ± 2.5%

Q: What about the Emax (CB2 V261L) of the same molecule?
A: 33.8 ± 2.6%

Q: What about the Emax [3] of the same molecule?
A: 3 ± 2%
